Test results from ChEMBL document CHEMBL1201862, “PubChem BioAssay data set” (2004).
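Grown in 96-well plates, cells were treated for 48 hours with each compound at five concentrations. Insufficient inhibition: endpoint recorded as highest concentration tested. GI50 is the concentration that inhibits growth by half.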 Active and inactive are the calls of the source. No stated cut-off is given here; in the data, active = GI50 up to about 1.1 µM and inactive = higher.

How the values were obtained:
Test in all cases: growth of human tumour cells (NCI), 48 h
[1] = tested on: LOX IMVI
[2] = tested on: U-251
[3] = tested on: HOP-92
[4] = tested on: RPMI-8226
[5] = tested on: MCF7
[6] = tested on: EKVX
[7] = tested on: COLO 205
[8] = tested on: CCRF-CEM
[9] = tested on: 786-0
[10] = tested on: MOLT-4
[11] = tested on: HCT-15
[12] = tested on: KM12
[13] = tested on: IGROV-1
[14] = tested on: MDA-MB-231
[15] = tested on: Hs-578T
[16] = tested on: HCT-116
[17] = tested on: OVCAR-4
[18] = tested on: HT-29
[19] = tested on: K562
[20] = tested on: SK-MEL-5
[21] = tested on: NCI/ADR-RES
[22] = tested on: TK-10
[23] = tested on: OVCAR-8
[24] = tested on: UO-31
[25] = tested on: M14
[26] = tested on: HOP-62
[27] = tested on: OVCAR-5
[28] = tested on: SF-295
[29] = tested on: SNB-19
[30] = tested on: SK-OV-3
[31] = tested on: HCC 2998
[32] = tested on: DU-145
[33] = tested on: A549
[34] = tested on: SR
[35] = tested on: UACC-62
[36] = tested on: SN12C
[37] = tested on: MDA-N
[38] = tested on: OVCAR-3
[39] = tested on: BT-549
[40] = tested on: SK-MEL-2
[41] = tested on: SF-268
[42] = tested on: ACHN
[43] = tested on: CAKI-1
[44] = tested on: A498
[45] = tested on: PC-3
[46] = tested on: SW-620
[47] = tested on: T47D
[48] = tested on: SNB-75
[49] = tested on: HL-60
[50] = tested on: MDA-MB-435
[51] = tested on: SF-539
[52] = tested on: NCI-H460
[53] = tested on: UACC-257
[54] = tested on: SK-MEL-28
[55] = tested on: NCI-H23
[56] = tested on: NCI-H226
[57] = tested on: NCI-H522
[58] = tested on: Malme-3M
[59] = tested on: RXF 393

Oc1c(Br)cc(/C=C/c2ccnc(/C=C/c3cc(Br)c(O)c(Br)c3)c2)cc1Br
GI50 [1]: 29.2 µM (inactive)
GI50 [2]: 15.2 µM (inactive)
GI50 [3]: 30.8 µM (inactive)
GI50 [4]: 20.7 µM (inactive)
GI50 [5]: 24.2 µM (inactive)
GI50 [6]: 25.4 µM (inactive)
GI50 [7]: 27.4 µM (inactive)
GI50 [8]: 22.6 µM (inactive)
GI50 [9]: 18.2 µM (inactive)
GI50 [10]: 21 µM (inactive)
GI50 [11]: 23.6 µM
GI50 [12]: 19.1 µM (inactive)
GI50 [13]: 32.4 µM (inactive)
GI50 [14]: 21.9 µM (inactive)
GI50 [15]: 54.2 µM (inactive)
GI50 [16]: 17 µM (inactive)
GI50 [17]: 30.3 µM (inactive)
GI50 [18]: 21.7 µM (inactive)
GI50 [19]: 24.2 µM (inactive)
GI50 [20]: 19.1 µM (inactive)
GI50 [21]: 31.6 µM (inactive)
GI50 [22]: 27.2 µM (inactive)
GI50 [23]: 26.8 µM (inactive)
GI50 [24]: 19.2 µM (inactive)
GI50 [25]: 25.1 µM (inactive)
GI50 [26]: 34.4 µM (inactive)
GI50 [27]: 25.5 µM (inactive)
GI50 [28]: 27.5 µM (inactive)
GI50 [29]: 35.8 µM (inactive)
GI50 [30]: 34.2 µM (inactive)
GI50 [31]: 25.8 µM (inactive)
GI50 [32]: 20.4 µM (inactive)
GI50 [33]: 23.6 µM (inactive)
GI50 [34]: 17.8 µM (inactive)
GI50 [35]: 24.3 µM (inactive)
GI50 [36]: 51.3 µM (inactive)
GI50 [37]: 33.5 µM (inactive)
GI50 [38]: 19.7 µM (inactive)
GI50 [39]: 33.4 µM (inactive)
GI50 [40]: 14.9 µM (inactive)
GI50 [41]: 40.3 µM (inactive)
GI50 [42]: 28.4 µM (inactive)
GI50 [43]: 35.5 µM (inactive)
GI50 [44]: 18.9 µM (inactive)
GI50 [45]: 16.4 µM (inactive)
GI50 [46]: 35.6 µM (inactive)
GI50 [47]: 16.7 µM (inactive)
GI50 [48]: 19.1 µM (inactive)
GI50 [49]: 14.5 µM (inactive)
GI50 [50]: 26.7 µM (inactive)
GI50 [51]: 18.5 µM (inactive)
GI50 [52]: 12.6 µM (inactive)
GI50 [53]: 26.2 µM (inactive)
GI50 [54]: 39 µM (inactive)

CCOC1OC(COC(=O)C(C)(C)C)C(O)CC1n1cc(C)c(=O)[nH]c1=O (centres undefined)
GI50 [1]: > 100 µM (inactive)
GI50 [55]: > 100 µM (inactive)
GI50 [2]: > 100 µM (inactive)
GI50 [56]: > 100 µM (inactive)
GI50 [3]: > 100 µM (inactive)
GI50 [4]: > 100 µM (inactive)
GI50 [5]: > 100 µM (inactive)
GI50 [6]: > 100 µM (inactive)
GI50 [7]: > 100 µM (inactive)
GI50 [8]: > 100 µM (inactive)
GI50 [57]: > 100 µM (inactive)
GI50 [9]: > 100 µM (inactive)
GI50 [11]: > 100 µM
GI50 [12]: > 100 µM (inactive)
GI50 [13]: > 100 µM (inactive)
GI50 [14]: > 100 µM (inactive)
GI50 [15]: > 100 µM (inactive)
GI50 [16]: > 100 µM (inactive)
GI50 [17]: > 100 µM (inactive)
GI50 [18]: > 100 µM (inactive)
GI50 [19]: > 100 µM (inactive)
GI50 [20]: > 100 µM (inactive)
GI50 [21]: > 100 µM (inactive)
GI50 [22]: > 100 µM (inactive)
GI50 [23]: > 100 µM (inactive)
GI50 [24]: > 100 µM (inactive)
GI50 [25]: > 100 µM (inactive)
GI50 [27]: > 100 µM (inactive)
GI50 [28]: > 100 µM (inactive)
GI50 [29]: > 100 µM (inactive)
GI50 [31]: > 100 µM (inactive)
GI50 [32]: > 100 µM (inactive)
GI50 [33]: > 100 µM (inactive)
GI50 [34]: > 100 µM (inactive)
GI50 [35]: > 100 µM (inactive)
GI50 [36]: > 100 µM (inactive)
GI50 [37]: > 100 µM (inactive)
GI50 [38]: > 100 µM (inactive)
GI50 [39]: > 100 µM (inactive)
GI50 [58]: > 100 µM (inactive)
GI50 [40]: > 100 µM (inactive)
GI50 [41]: > 100 µM (inactive)
GI50 [42]: > 100 µM (inactive)
GI50 [43]: > 100 µM (inactive)
GI50 [44]: > 100 µM (inactive)
GI50 [45]: > 100 µM (inactive)
GI50 [46]: > 100 µM (inactive)
GI50 [47]: > 100 µM (inactive)
GI50 [48]: > 100 µM (inactive)
GI50 [50]: > 100 µM (inactive)
GI50 [51]: > 100 µM (inactive)
GI50 [52]: > 100 µM (inactive)
GI50 [59]: > 100 µM (inactive)
GI50 [53]: > 100 µM (inactive)
GI50 [54]: > 100 µM (inactive)
